Experimental data taken from patent publication US20130317092A1 (priority 2007, published 2013).
Entries after “also recorded” stand apart in the source; their conditions may differ.

Key:
[1] = system: AChE; assay: AChE catalytic activity (Ellman) in RAW 264.7 cells; type: cell-based, murine
[2] = system: AChmiRNA; set-up: species or system mice; conditions: mouse
[3] = system: Meg-01 cells; assay: Scanning electron microscopy of Meg-01 cell surface (megakaryocytic maturation); type: cell-based, human; conditions: 24 hour treatment
[4] = system: AChE-R mRNA; assay: AChE-R mRNA level (RT-PCR, fluorescent in situ hybridization) in Meg-01 cells; type: cell-based, human
[5] = system: PKCβII; assay: PKCβII immunocytochemistry in Meg-01 cells; type: cell-based, human; conditions: 24 hours
[6] = system: c-Myc; assay: c-Myc immunohistochemistry in Meg-01 cells; type: cell-based, human; conditions: agent alone
[7] = system: Meg-01 cells; assay: DNA fragmentation by TUNEL assay in Meg-01 cells; type: cell-based, human
[8] = system: AChE-R; assay: AChE-R protein immunocytochemistry in Meg-01 cells; type: cell-based, human; conditions: 24 hours
[9] = system: Meg-01 cells; assay: Nuclear area measurement of Meg-01 cells; type: cell-based, human; conditions: 24 hours
[10] = system: activated caspase-3; assay: Activated caspase-3 immunostaining in Meg-01 cells; type: cell-based, human; conditions: 24 hours, agent alone
[11] = system: AChE-S; assay: AChE-S protein immunocytochemistry in Meg-01 cells; type: cell-based, human; conditions: 24 hours
[12] = system: Meg-01 cells; assay: Adhesion assay of MEG-01 cells; type: cell-based, human; conditions: 72 hours
[13] = system: activated caspase-9; assay: Activated caspase-9 immunostaining in Meg-01 cells; type: cell-based, human
[14] = system: ASF/SF2; assay: Splice factor ASF/SF2 in Meg-01 cells; type: cell-based, human; conditions: data not shown
[15] = system: AChmiRNA (miRNA-181a); assay: AChmiRNA (miRNA-181a) level by real-time RT-PCR in Meg-01 cells; type: cell-based, human
[16] = system: AChE-S mRNA; assay: AChE-S mRNA level (fluorescent in situ hybridization) in Meg-01 cells; type: cell-based, human; conditions: agent alone
[17] = system: Meg-01 cells; assay: Ploidy / DNA content of Meg-01 cells by FACS and propidium iodide; type: cell-based, human; conditions: 72 hours
[18] = system: Bcl-2; assay: Bcl-2 immunostaining in Meg-01 cells; type: cell-based, human
[19] = system: CD54 and CD40; conditions: cited from earlier work
[20] = system: BDP1; assay: BDP1 transcript in human PBMC (real-time RT-PCR); type: cell-based
[21] = system: ASF/SF2; assay: Splicing factor ASF/SF2 in human PBMC (real-time RT-PCR); type: cell-based
[22] = system: AChmiRNA; assay: AChmiRNA expression in human PBMC (quantitative RT-PCR); type: cell-based
[23] = system: macrophage miRNAs; assay: Spotted microarray miRNA profile of primary human macrophages; type: cell-based
Text: Macrophages were isolated from buffy coats from healthy donors, underwent pooling that elicited mixed leukocyte response (MLR) and subjected in vitro to several distinct agents or combinations thereof, some known to elicit macrophage activation (listed in Table 2, hereinbelow).
The mirVana (Ambion, Austin, Tex.) oligonucleotide set was used to construct the in-house array. The microarray carried 200 spotted probes complementary to known human and mouse miRNAs. To compose the array, the mirVana probeset was dissolved in 3×SSC to a final concentration of […], and printed on Ultragaps slides (Corning, Corning, N.Y.), using the MicroGrid spotter (Genomic Solutions, Holliston, Mass.). The array layout contained 12 subgrids, each composed of 11 rows and 12 columns. Each oligonucleotide was spotted 6 times on the array. The experiments were designed for comparison of two samples. Data was therefore always relative rather than absolute. In these experiments, a “reference design” (Churchill, 2002, Nature genetics, 32, 490-495) was used, in which RNA from cells or tissues is compared. In addition, dye-swapping tests were performed, aimed to exclude dye-specific labeling differences (Dombkowski et al., 2004, FEBS Lett, 560, 120-124). Labeling was performed using the CyDye reactive dye pack (Amersham, NSW, Australia), as instructed. Pre-hybridization was in pre-heated S×SSC, 1% BSA, 0.1% SDS solution, at 42° C. for 45 min. Cy3 and Cy5-labeled fragmented RNA (3 ug each) were added to the hybridization solution (3×SSC, 0.1% SDS, 10 μg polyA, 20 μg tRNA), heated at 95° C. for 4 minutes for eliminating secondary structures and applied to the slides in hybridization chambers (Corning, N.Y., USA) for 15 h at 64° C. Hybridized slides were successively washed in: 1×SSC, 0.1% SDS (5 min); 0.1×SSC, 0.1% SDS (5 min) and 0.1×SSC (3×1.5 min) and were dried by centrifugation (˜1000 g).
This was adapted from (Ben-Ari S, et al., J. Neurochem. 2006 April; 97 Suppl 1:24-34.) Briefly, an Affymetrix 428 Array Scanner was used at the maximum gain setting, at the wavelengths of 532 nm and 650 nm Scans were controlled by the “Jaguar” software (Affymetrix, Calif., USA), saved as TIFF files and exported to the “Imagene” program (Biodiscovery Inc, CA, USA) to define the spots, convert the intensity signals into numbers and calculate quality parameters such as “shape regularity”, “empty spot” etc. Data normalization, exclusion of unreliable spots and combining the information from all 4 slides were performed in an in-house Matlab program. First, median background was subtracted from the median signal intensity, to normalize background noises. Background area was defined as a circle of 5 pixels diameter separated from the signal area by 4 pixels. […]. Spot quality was examined according to pre-defined Imagene's parameters, standard deviation of pixels intensity in each spot etc. Spots with intensities below the threshold derived from the negative control spots or with saturated pixel values were excluded. The Cy3 and Cy5 signal intensities of each spot were normalized to the mean Cy3 and Cy5 intensities in the slide. For each spot, an initial Cy3/Cy5 ratio has been calculated, and was transformed to a log 2 basis. This value was designated LR (log 2 ratio). […]. Then, results from all valid spots (up to 6) representing the same oligonucleotide were combined. Probes with less than 3 valid spots were excluded, and median and mean LR were calculated.
Covariance between treatments was calculated in OpenOffice 1.1 for Mac OS X, using the entire miRNA collection represented on the chip (for signals that failed the MatLab analysis, a Median LR value of 0 was assigned).
The mirVana oligo set (Ambion, Austin, Tex.; Catalog number 1564V1) was used to construct our in-house array with >200 spotted probes complementary to known human and mouse miRs. […]

[24] = system: TBP; assay: TBP transcript in human PBMC (real-time RT-PCR); type: cell-based

For `C=CC[N+](C)(C)c1ccc(CCC(=O)CCc2ccc([N+](C)(C)CC=C)cc2)cc1.[Br-].[Br-]` [BW284c51, 1,5-Bis(4-allyldimethylammoniumphenyl)pentan-3-one dibromide], the AChE activity ([1]; RAW 264.7 cells, 24 hr, LPS 1 μg/ml, BW 284 C51 10 μM (Example 13)) was “reduced AChE activity” and the AChE activity ([1]; macrophages (RAW 264.7), 1 micromolar BW284c51, 100 nanomolar CpG 1826) was “decrease”.

With `CN1CC=C(c2ccccc2)CC1` [MPTP, 1-Methyl-4-phenyl-1,2,3,6-tetrahydropyridine] the “AChmiRNA levels in vivo” value [2] was “decreases of AChmiRNA levels”.

In the case of `C/C=C(/C)C(=O)O[C@H]1C(C)=C2[C@H]([C@@H]1OC(=O)CCCCCCC)[C@@](C)(OC(C)=O)C[C@H](OC(=O)CCC)[C@@]1(O)[C@H]2OC(=O)[C@@]1(C)O` [Thapsi, Thapsigargin], the “cell surface morphology (scanning electron microscopy)” value [3] is reported as “a very early stage in the formation of demarcation membranes”, the “AChE-R mRNA level (RT-PCR)” value ([4]; 24 hours) is reported as “increasing the levels of AChE-R mRNA variant” and the “AChE-R mRNA level by FISH (population distribution)” value ([4]; agent alone) is reported as “rightward shift in the population distribution of labeling intensity; also recorded: increase in AChE-R mRNA level”. The “staining intensity for PKCβ” value [5] was “increased staining intensity for PKCβ”, the c-myc expression [6] was “c-myc increase induced by Thapsi” and the “DNA fragmentation / cell death (TUNEL)” value [7] was “no significant changes”. For the same compound, the “AChE-R protein level (immunohistochemistry)” value [8] was “increase also in the protein level”, the “nuclear area / nuclei size” value [9] was “increase in the nuclear area” and the “incidence of activated caspase-3 positive cells” value [10] was “increase in the incidence of activated caspase-3 positive cells”. For the same compound, the “expression of the AChE-S variant (immunohistochemistry)” value [11] was “decrease of expression of the AChE-S variant”, the cell adhesion [12] was “increased adhesion of treated cells” and the “incidence of activated caspase-9 positive cells” value [13] was “increased the incidence of positive cells for activated caspase-9 immunostaining”. The “splice factor ASF/SF2” value [14] was “induced”, the “level of AChmiRNA” value ([15]; Meg-01 cells treated for 24 hours, agent alone) was “induced a decrease in AChmiRNA” and the “decrease in the levels of AChmiRNA” value ([15]; Meg-01 cells, Thapsi treatment (ER-calcium release), real-time RT-PCR) was 50%. For the same compound, the “AChE-S mRNA level by FISH” value [16] was “decrease in AChE-S mRNA level”, the “ploidy (DNA content)” value [17] was “a bigger fraction of cells became polyploid” and the “immunoreactivity of Bcl-2” value [18] was “decrease in the immunoreactivity of Bcl-2”.

In the case of CpG ODN 2006, the “expression of CD54 and CD40” value [19] is given as “enhanced expression of CD54 and CD40”, the BDP1 transcript [20] is given as “suppressed” and the “splicing factor ASF/SF2 levels” value [21] is given as “reduced levels”. For the same compound, the AChmiRNA expression [22] was “suppressed”, the “similarity of effects on the miRNA profile (covariance)” value [23] was “invoke the closest effects on the miRNA profile” and the “miR-132 expression (spotted microarray)” value ([23]; 24 h, 1 μg/ml LPS or ODN 2006 1 uM) was “consistently being up-regulated”. For the same compound, the “extent of change in miRNA expression (miRNAs beyond median LR=0.25)” value ([23]; LPS 1 μg/ml, CpG 1 μM, EN101 1 μM) was “caused the greatest change”, the miR-17-5p expression ([23]; spotted array) was “down-regulated by CpG alone” and the “miR-30a-3p and miR-372 expression” value ([23]; spotted array) was “consistently down-regulated”. For the same compound, the miRNAs down-regulated ([23]; spotted array) was “miR-9-1*, 26a-1, 27a, 33, 93, 140, 145, 185, 221, and 298”, the miRNAs up-regulated ([23]; spotted array) was “miR-183, 292-3p, 302c, 361, and 381” and the TBP transcript [24] was “suppressed”.
